Structures can show the parent of a compound that is named as a salt. Where two headings read alike, the source gives them in different places.
System: Acinetobacter baumannii ATCC17961
Experiment: Antimicrobial susceptibility testing: 90% growth inhibitory concentration (IC90) determination, Iso-Sensitest broth
Format: cell-based
Conditions: Acinetobacter baumannii
Procedure, shortened: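 Growth at OD600 was monitored every 20 min for 16 h at 35±2 °C, with bacteria inoculated at ~5×10^(5) CFU/ml into Iso-Sensitest medium. Compounds were tested as 10-point twofold dilutions (e.g. 10–0.02 μM final). The 90% inhibitory concentration comes from the log-phase growth.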

[1] = ATCC17961, 90% growth inhibitory concentration, Acinetobacter baumannii ATCC17961, Iso-Sensitest broth, read-out: ATCC 17961 IC90
[2] = ATCC17961, read-out: ATCC 17961 IC90

Compound	IC90 [1] [nM]	IC90 [2] [nM]
Cn1c(-c2ccc(OC(F)F)c(F)c2F)cnc1C(=O)Nc1ccc(C(=O)N2CCC(C(=O)NCCN)CC2)c(Cl)c1 [Example 92, N-(2-aminoethyl)-1-(2-chloro-4-(5-(4-(difluoromethoxy)-2,3-difluorophenyl)-1-methyl-1H-imidazole-2-carboxamido)benzoyl) piperidine-4-carboxamide formate]		60
COc1ccc(-c2cnc(C(=O)Nc3ccc(C(=O)N4CCC(C(=O)N5C[C@H](N)[C@@H](F)C5)CC4)c(Cl)c3)n2C)c(F)c1F [Example 37, N-[4-[4-[(3S,4S)-3-amino-4-fluoro-pyrrolidine-1-carbonyl]piperidine-1-carbonyl]-3-chloro-phenyl]-5-(2,3-difluoro-4-methoxy-phenyl)-1-methyl-imidazole-2-carboxamide trifluoroacetate]		170
Cn1c(-c2ccc(OC(F)F)c(F)c2)cnc1C(=O)Nc1ccc(C(=O)N2CCN(C(=O)C3CCNCC3)CC2)c(Cl)c1 [Example 144, N-[3-chloro-4-[4-(piperidine-4-carbonyl)piperazine-1-carbonyl]phenyl]-5-[4-(difluoromethoxy)-3-fluoro-phenyl]-1-methyl-imidazole-2-carboxamide formate]	60	
CC[C@@]1(O)CN[C@H](C(=O)N2CCN(C(=O)c3ccc(NC(=O)c4ncc(-c5ccc(OC)c(F)c5F)n4C)cc3Cl)CC2)C1 [Example 233, N-[3-chloro-4-[4-[(2S,4S)-4-ethyl-4-hydroxy-pyrrolidine-2-carbonyl]piperazine-1-carbonyl]phenyl]-5-(2,3-difluoro-4-methoxy-phenyl)-1-methyl-imidazole-2-carboxamide formate]	130	
COc1ccc(-c2cnc(C(=O)Nc3ccc(C(=O)N4C[C@H]5CN(C(=O)CN(C)C)C[C@H]5C4)c(Cl)c3)n2C)c(F)c1F [Example 190, N-[4-[(3aS,6aR)-2-[2-(dimethylamino)acetyl]-1,3,3a,4,6,6a-hexahydropyrrolo[3,4-c]pyrrole-5-carbonyl]-3-chloro-phenyl]-5-(2,3-difluoro-4-methoxy-phenyl)-1-methyl-imidazole-2-carboxamide formate]	180	
COc1ccc(-c2cnc(C(=O)Nc3ccc(C(=O)N4CCC(C(=O)NCC5CCN5)CC4)c(Cl)c3)n2C)c(F)c1F (stereo not drawn) [Example 63, N-(azetidin-2-ylmethyl)-1-[2-chloro-4-[[5-(2,3-difluoro-4-methoxy-phenyl)-1-methyl-imidazole-2-carbonyl]amino]benzoyl] piperidine-4-carboxamide formate]	90	
CN(C)CC(=O)N1CCN(C(=O)c2ccc(NC(=O)c3ncc(-c4ccc(OC(F)F)c(F)c4F)n3C)cc2Cl)CC1 [Example 156, N-[3-chloro-4-[4-[2-(dimethylamino)acetyl]piperazine-1-carbonyl]phenyl]-5-[4-(difluoromethoxy)-2,3-difluoro-phenyl]-1-methyl-imidazole-2-carboxamide formate]	30	
Cc1cc(NC(=O)c2ncc(-c3ccc(OCC#N)c(F)c3F)n2C)ccc1C(=O)N1CCN(C(=O)[C@@H]2C[C@](C)(O)CN2)CC1 [Example 225, 5-[4-(cyanomethoxy)-2,3-difluoro-phenyl]-N-[4-[4-[(2S,4S)-4-hydroxy-4-methyl-pyrrolidine-2-carbonyl]piperazine-1-carbonyl]-3-methyl-phenyl]-1-methyl-imidazole-2-carboxamide formate]	160	
COc1ccc(-c2cnc(C(=O)Nc3ccc(C(=O)N4CCN(C(=O)CC5(O)CNC5)CC4)c(Cl)c3)n2C)c(F)c1F [Example 177, N-[3-chloro-4-[4-[2-(3-hydroxyazetidin-3-yl)acetyl]piperazine-1-carbonyl]phenyl]-5-(2,3-difluoro-4-methoxy-phenyl)-1-methyl-imidazole-2-carboxamide formate]	50	
Cn1c(-c2ccc(OCC#N)c(F)c2Cl)cnc1C(=O)Nc1ccc(C(=O)N2CCN(C(=O)C3CCNCC3)CC2)c(Cl)c1 [Example 252, 5-[2-chloro-4-(cyanomethoxy)-3-fluoro-phenyl]-N-[3-chloro-4-[4-(piperidine-4-carbonyl)piperazine-1-carbonyl]phenyl]-1-methyl-imidazole-2-carboxamide formate]	60	
Cn1c(-c2ccc(OC(F)F)c(F)c2F)cnc1C(=O)Nc1ccc(C(=O)N2CCC(C(=O)N[C@H]3CNC[C@@H]3O)CC2)c(Cl)c1 [Example 93, 1-(2-chloro-4-(5-(4-(difluoromethoxy)-2,3-difluorophenyl)-1-methyl-1H-imidazole-2-carboxamido)benzoyl)-N-((3S,4S)-4-hydroxypyrrolidin-3-yl)piperidine-4-carboxamide formate]		40

The next lines start with results.

IC90 [1] [nM]	Compound	IC90 [2] [nM]
250	COc1ccc(-c2cnc(C(=O)Nc3ccc(C(=O)N4CCN(C(=O)C[C@@H]5CCNC5)CC4)c(Cl)c3)n2C)c(C#N)c1F [Example 260, N-[3-chloro-4-[4-[2-[(3S)-pyrrolidin-3-yl]acetyl]piperazine-1-carbonyl]phenyl]-5-(2-cyano-3-fluoro-4-methoxy-phenyl)-1-methyl-imidazole-2-carboxamide formate]	
100	COc1ccc(-c2cnc(C(=O)Nc3ccc(C(=O)N4CCN(C(=O)[C@@H]5CCNC[C@H]5O)CC4)c(Cl)c3)n2C)c(F)c1F [Example 230, N-[3-chloro-4-[4-[(3S,4R)-3-hydroxypiperidine-4-carbonyl]piperazine-1-carbonyl]phenyl]-5-(2,3-difluoro-4-methoxy-phenyl)-1-methyl-imidazole-2-carboxamide formate]	
40	COc1ccc(-c2cnc(C(=O)Nc3ccc(C(=O)N4CCN(C(=O)CCCN)CC4)c(Cl)c3)n2C)c(F)c1F [Example 121, N-[4-[4-(4-aminobutanoyl)piperazine-1-carbonyl]-3-chloro-phenyl]-5-(2,3-difluoro-4-methoxy-phenyl)-1-methyl-imidazole-2-carboxamide; formic acid]	
80	Cn1c(-c2ccc(OC(F)F)c(F)c2F)cnc1C(=O)Nc1ccc(C(=O)N2CCC(C(=O)N3CC[C@@H](N)C3)CC2)c(Cl)c1 [Example 45, N-[4-[4-[(3R)-3-aminopyrrolidine-1-carbonyl]piperidine-1-carbonyl]-3-chloro-phenyl]-5-[4-(difluoromethoxy)-2,3-difluoro-phenyl]-1-methyl-imidazole-2-carboxamide trifluoroacetate]	
50	COc1ccc(-c2cnc(C(=O)Nc3ccc(C(=O)N4CCC(C(=O)N[C@H]5CNC[C@@H]5O)CC4)c(Cl)c3)n2C)c(F)c1F [Example 72, 1-[2-chloro-4-[[5-(2,3-difluoro-4-methoxy-phenyl)-1-methyl-imidazole-2-carbonyl]amino]benzoyl]-N-[(3S,4S)-4-hydroxypyrrolidin-3-yl]piperidine-4-carboxamide formate]	
30	Cn1c(-c2ccc(OCF)c(F)c2F)cnc1C(=O)Nc1ccc(C(=O)N2CCN(C(=O)C[C@@H]3CCCN3)CC2)c(Cl)c1 [Example 157, N-[3-chloro-4-[4-[2-[(2S)-pyrrolidin-2-yl]acetyl]piperazine-1-carbonyl]phenyl]-5-[2,3-difluoro-4-(fluoromethoxy)phenyl]-1-methyl-imidazole-2-carboxamide formate]	
40	Cn1c(-c2ccc(OC(F)F)c(F)c2F)cnc1C(=O)Nc1ccc(C(=O)N2CCC(C(=O)N[C@@H]3CNC[C@H]3O)CC2)c(Cl)c1 [Example 96, 1-(2-chloro-4-(5-(4-(difluoromethoxy)-2,3-difluorophenyl)-1-methyl-1H-imidazole-2-carboxamido)benzoyl)-N-((3R,4R)-4-hydroxypyrrolidin-3-yl)piperidine-4-carboxamide formate]	
30	Cn1c(-c2ccc(OCF)c(F)c2F)cnc1C(=O)Nc1ccc(C(=O)N2CCN(C(=O)C3(O)CCNCC3)CC2)c(Cl)c1 [Example 162, N-[3-chloro-4-[4-(4-hydroxypiperidine-4-carbonyl)piperazine-1-carbonyl]phenyl]-5-[2,3-difluoro-4-(fluoromethoxy)phenyl]-1-methyl-imidazole-2-carboxamide formate]	
150	COc1ccc(-c2cnc(C(=O)Nc3ccc(C(=O)N4CCN(S(=O)(=O)CCN)CC4)c(Cl)c3)n2C)c(F)c1F [Example 239, N-[4-[4-(2-aminoethylsulfonyl)piper-razine-1-carbonyl]-3-chloro-phenyl]-5-(2,3-difluoro-4-methoxy-phenyl)-1-methyl-imidazole-2-carboxamide]	
110	COc1ccc(-c2cnc(C(=O)Nc3ccc(C(=O)N4CCN(C(=O)C5CCC(=O)NC5)CC4)c(Cl)c3)n2C)c(F)c1F (stereo not drawn) [Example 125, N-[3-chloro-4-[4-(6-oxopiperidine-3-carbonyl)piperazine-1-carbonyl]phenyl]-5-(2,3-difluoro-4-methoxy-phenyl)-1-methyl-imidazole-2-carboxamide]	
110	COc1ccc(-c2cnc(C(=O)Nc3ccc(C(=O)N4CCN(C(=O)C5CC(O)C5)CC4)c(Cl)c3)n2C)c(F)c1F (stereo not drawn) [Example 219, N-(3-chloro-4-(4-(3-hydroxycyclobutane-1-carbonyl)piperazine-1-carbonyl)phenyl)-5-(2,3-difluoro-4-methoxyphenyl)-1-methyl-1H-imidazole-2-carboxamide]	
90	COc1ccc(-c2cnc(C(=O)Nc3ccc(C(=O)N4CC(NC(=O)CN)C4)c(Cl)c3)n2C)c(F)c1F [Example 217, N-(4-(3-(2-aminoacetamido)azetidine-1-carbonyl)-3-chlorophenyl)-5-(2,3-difluoro-4-methoxyphenyl)-1-methyl-1H-imidazole-2-carboxamide formate]	
2590	Cn1c(-c2ccc(F)c(C#N)c2F)cnc1C(=O)Nc1ccc(C(=O)N2CCN(C(=O)C3CCNCC3)CC2)c(Cl)c1 [Example 193, N-[3-chloro-4-[4-(piperidine-4-carbonyl)piperazine-1-carbonyl]phenyl]-5-(3-cyano-2,4-difluoro-phenyl)-1-methyl-imidazole-2-carboxamide formate]	

Reference: patent publication US20220396565A1 (Hoffmann-La Roche Inc., priority 2020, published 2022)
